Source: patent publication US11261435B2, “Chemical-inducible genome engineering technology” (AGENCY FOR SCIENCE, TECHNOLOGY AND RESEARCH, priority 2015, dated 2022)

How the values were obtained:
[1] = test system: EMX1 locus; experiment: Surveyor cleavage assay at the EMX1 locus in HEK293 cells; assay type: cell-based, human; settings: for switching ratio: harvested 96 hours after transfection
Method: FIG. 29|Effect of enzyme dosage on the level of background activity, shown as gel images. Different amounts of an iCas-bearing plasmid were transfected together with an EMX1-targeting sgRNA into HEK293 cells. These cells were harvested 96 hours after transfection for the Surveyor cleavage assay. DNA modification was clearly observed when 1 μg of plasmid was utilised, even in the absence of the inducer. […] The switching ratio was improved from 2.83 to 4.16 and 7.96 respectively. […] Arrows indicate the height of the expected cleavage bands.

[2] = test system: EMX1 locus; experiment: Illumina deep sequencing of INDELs at the EMX1 locus in HEK293 cells; assay type: cell-based, human; settings: for time at which leaky activity was first detected: without 4-hydroxytamoxifen (0 nM)
[3] = test system: FANCF locus; experiment: Surveyor assay, genome modification at the FANCF locus in HEK293 cells; assay type: cell-based, human; settings: for cleavage bands with 4HT: 100 nM or 1000 nM 4HT for 24 hours
Method: FIG. 16|Genome modification at the FANCF locus in HEK293 cells, the data represented as images showing the results and the concentration of gene induction. 24 hours after transfection with Cas9 variant 27, 29, or 30, the cells were either harvested immediately (0 hour time point) or were exposed to 0 nM, 100 nM or 1000 nM 4HT for another 24 hours before genomic DNA was isolated and analysed by the Surveyor assay. Arrows indicate the expected cleavage bands. […] Furthermore, the leakiness in editing activity became more pronounced over time, as indicated by the increase in INDEL frequency from 2.5% to 7.7% for variant 27 and from 2.9% to 3.5% for variant 29.
At 24 hours after transfection with a FANCF-targeting plasmid, cells were treated with or without tamoxifen for another 24 hours before genomic DNA was isolated and analysed by the Surveyor assay (FIG. 10).

[4] = test system: VEGFA promoter, WAS, TAT, and FANCF genes; experiment: Surveyor assay at VEGFA, WAS, TAT and FANCF genomic loci in HEK293 cells; assay type: cell-based, human; settings: 1 μM 4-HT
From the text: (§1) The editing activity continued to increase with longer treatment durations.

[5] = test system: TAT locus; experiment: Surveyor assay at the TAT locus in cancer cell lines; assay type: cell-based, human; settings: 1 μM 4HT; MCF7, DLD1 and HCT116
Method: FIG. 18|Genome modification at the TAT locus in different cancer cell lines. The efficiency of iCas was tested in the breast cancer cell line MCF7, as well as in the colorectal cancer cell lines DLD1 and HCT116, the results of which are shown as gel images. Based on the Surveyor assays, genome modifications were detected after the cells were treated with 1 μM 4HT for 6 hours. The INDEL frequency increased when the treatment duration was lengthened to 8 hours for all the cell lines tested. Arrows indicate the expected cleavage bands.
as §1

[6] = test system: known Cas9 off-target sites of the EMX1, VEGFA, FANCF, WAS, and TAT sgRNAs; experiment: Surveyor assay at known Cas9 off-target sites; assay type: cell-based, human
Method: The specificity of iCas was tested using seven distinct guide RNAs (gRNAs), the results of which are shown in three-dimensional column graphs. […] (n≥2 replicates for each on-target site; n≥3 replicates for each EMX1 off-target site; n≥1 replicate for other off-target sites.)
To assess the DNA cleavage specificity of iCas, the modification of known Cas9 off-target sites of the EMX1, VEGFA, FANCF, WAS, and TAT sgRNAs was measured.

[7] = test system: CTNNB1 locus; experiment: Surveyor assay at the CTNNB1 locus in STF3A-Tet-On cells; assay type: cell-based
[8] = test system: Wnt signalling pathway; experiment: Wnt-responsive luciferase reporter assay in STF3A-TetOn cells; assay type: cell-based; settings: CTNNB1-targeting sgRNA; chemical 6 hours, harvested after another 72 hours
Method: Cells were treated for 6 hours with the respective chemical and then harvested after another 72 hours to allow sufficient time for changes in β-catenin or luciferase protein levels.
The cells were then trypsinised and re-seeded equally into a Corning 96-well flat clear bottom white plate. Samples were assayed for luciferase activity using Dual-Glo Luciferase (Promega) according to manufacturer's instructions. All measurements were taken using the i-control software for Tecan microplate readers. All firefly luciferase measurements were normalized to the corresponding renilla luciferase readings.

[9] = test system: β-catenin; experiment: β-catenin transcript (qRT-PCR) and protein (Western blot) levels; assay type: cell-based, human; settings: inducer 6 hours, harvested after another 72 hours
Method: Subsequently, they were harvested for analysis after another 72 hours. […] Error bars reflect the standard deviation from at least three biological replicates.
Proteins from whole cell lysates, nuclear fractions, and cytosolic fractions were loaded in equal amounts for SDS PAGE and then transferred onto a nitrocellulose membrane for western blot. The primary antibodies used were α-V5 (Life Technologies, 1:8000 dilution), α-3PGDH (Santa Cruz, 1:1000 dilution), and α-total histone H3 (Abcam, 1:10000 dilution). Primary antibodies were diluted in TBST+5% milk and incubated overnight at 4° C. Secondary antibodies were used at a 1:2500 dilution in TBST+5% milk. Membranes were exposed after addition of WesternBright Sirius HRP substrate (Advansta).

[10] = test system: HEK293 cells; experiment: Immunohistochemical staining, nuclear localization of (ERT2)2-Cas9-(ERT2)2; assay type: cell-based, human; settings: no 4-HT; 24 hours after transfection
Method: To verify the results from the Surveyor assays and deep sequencing experiments, immunohistochemical staining was performed to determine the subcellular localization of the three variants, all of which contained two copies of ERT2 at both termini of the enzyme ((ERT2)2-Cas9-(ERT2)2), with or without 1 μM 4-HT. 24 hours after transfection with plasmids carrying a Cas9 variant and a sgRNA targeting the EMX1, VEGFA, FANCF, WAS, or TAT genomic locus, the cells were either fixed immediately and stained with anti-V5 or were subjected to 6 h or 24 h 4-HT treatment before fixation and staining (FIG. 15). […] Most of the protein translocation occurred within the first 6 hours of 4-hydroxytamoxifen treatment.
Paraformaldehyde-fixed HEK293 cells were first incubated with blocking solution (10% FBS in 0.1M PBS) (JR Scientific Inc) for 30 minutes and then quenched with 3% hydrogen peroxide. Next, the samples were incubated for 2 hours at room temperature or 4° C. overnight with primary antibody specific against the V5 epitope tag (Life Technologies) in blocking solution. Negative controls were incubated with blocking solution without any primary antibody. Subsequently, the samples were thoroughly washed with PBS and then incubated for 1 hour at room temperature with secondary horseradish peroxidase (HRP)-conjugated antibody (GE Healthcare UK Ltd). […]

[11] = test system: HEK293-iCas cells; experiment: Immunofluorescence localization of iCas in the stable line; assay type: cell-based, human
Method: FIG. 6|Toggling the activity of iCas on and off (a,b) Immunofluorescence images (a) and quantification (b) of iCas in HEK293-iCas cells either untreated (N.A.) or treated with 4-HT and then fixed at 0, 48, or 72 h after removal of 4-HT from the culture medium. DAPI, nuclear staining; V5, antibody specific for V5-tagged Cas9. Scale bar, […]. In (b), at least 300 cells were counted for each sample and time point. Data represent mean±s.d. from three biological replicates. n.s., not significant (P>0.25); **P<0.001, Student's t-test. (c) Surveyor assay detection of genome modification in HEK293 cells after two cycles of transfection and 4-HT treatment (4-HT 1 and 4-HT 2). A sgRNA targeting the WAS locus was transfected first, and a sgRNA targeting the ASXL2 locus second. Arrows indicate the expected cleavage bands.
In principle, a conditional system such as iCas should allow users to generate stable cell lines and induce its activity whenever needed. […] The cell line was verified to be functional (FIG. 25a) and monitored the intracellular localization of iCas by immunofluorescence (FIG. 6a). Without 4-hydroxytamoxifen, most cells produced an iCas protein that was localized in the cytoplasm; only 15% of the cells contained nuclear-localized protein. […] The inducer was then washed away and the cells immunostained with anti-V5 antibody at 48 and 72 hours after removal of 4-hydroxytamoxifen.

[12] = test system: EMX1, TAT, and WAS genomic loci; experiment: Benchmarking of post-translational control systems by Surveyor assay and deep sequencing; assay type: cell-based, human
From the text: Arrows indicate the expected cleavage bands.

[13] = test system: EMX1 and ADAR1 genomic loci; experiment: Multiplex genome editing, Surveyor assay; assay type: cell-based, human
Method: Besides single gene targeting, the ability of iCas to perform multiplex genome engineering was compared with that of intein-Cas9 or split-Cas9. HEK293 cells were co-transfected with a sgRNA targeting EMX1 and another sgRNA targeting a coding exon of ADAR1 (ADAR), and subsequently the extent of genome modification was analysed by the Surveyor assay.

[14] = test system: PARP4 gene; experiment: Surveyor assay at PARP4 in the HEK293-iCas stable line; assay type: cell-based, human; settings: 1 μM 4HT for 24 hours; after at least two weeks of passaging
Method: FIG. 27|Temporal switching of iCas activity. […] To assess the functionality of this cell line, a lentivirus expressing a sgRNA targeting one of the coding exons of the PARP4 gene was generated, and HEK293-iCas cells were infected the virus. After puromycin selection and continuous passaging of the cells for at least two weeks, the cells were treated with or without 1 μM 4HT for 24 hours before harvesting them for analysis using the Surveyor assay. […] When the cells are treated with 4HT, the iCas enzyme is expected to translocate into the nucleus and be able to edit the DNA (these cells are depicted as yellow). However, when the inducer has been removed for more than 72 hours, the iCas protein is expected to translocate out of the nucleus and thus no more editing will be anticipated.

[15] = test system: WAS locus and ASXL2; experiment: Toggling of iCas activity, Surveyor assay; assay type: cell-based, human
Method: Subsequently, the possibility of toggling the activity of iCas was explored (FIG. 25b). After 1 μM 4-hydroxytamoxifen treatment of HEK293 cells co-transfected with iCas and a first sgRNA targeting the WAS locus, the inducer was removed and 72 hours waiting time was allowed to pass, thereby allowing nuclear-localized iCas protein to exit the nucleus before introducing a second sgRNA targeting a coding exon of ASXL2. The cells were then either treated with 4-hydroxytamoxifen a second time or left untreated.

[16] = absence of 4HT, harvested 24 hours after transfection (0 hour time point)

## variant 30: NL-TGGGS-ERT2-PRGGS-ERT2-TPESGA-Cas9-NLS-ERT2-PAGGGS-ERT2 (SEQ ID NO. 249); hereafter referred to as iCas
[1]; 0.25 μg plasmid
  switching ratio: 7.96
[1]; 0.5 μg plasmid
  switching ratio: 4.16
[1]; 1 μg of plasmid
  switching ratio: 2.83
[1]; Surveyor assay
  duration of 4-hydroxytamoxifen treatment at which cleavage activity appears to plateau: around 8 hours
[1]; without 4-hydroxytamoxifen (0 nM), Surveyor assay
  time point at which leaky activity was observed: 48 h
[2]
  duration of 4-hydroxytamoxifen treatment after which a low level of DNA editing was revealed: 2 h
  time at which leaky activity was first detected: 16 h
[3]
  cleavage bands with 4HT: strong cleavage bands were observed
[3]; no 4HT
  cleavage band in the absence of 4HT: no cleavage band was detected
[4]
  duration of 4-hydroxytamoxifen treatment until nuclease activity, all loci tested: ≤ 4 h
[5]
  duration of 4HT treatment after which genome modifications were detected: 6 h
[6]; EMX1 sgRNA, 1 μM 4-hydroxytamoxifen up to 24 hours
  cleavage at the two EMX1 off-target sites: did not yield any measurable cleavage
[6]; gRNAs targeting VEGFA promoter first site, TAT locus, FANCF locus
  duration of 4HT treatment after which off-target effects were observed: 16 h
[7]; 1 μM 4-hydroxytamoxifen or 1 μg/ml doxycycline
  duration of inducer treatment until modification of the target locus: ≤ 6 h
[7]; any time point
  cleavage bands in the absence of 4-hydroxytamoxifen: No cleavage bands were observed
[8]
  luciferase activity: significant decrease in luciferase activity
[9]; co-transfected with β-catenin-targeting sgRNA, Western blot
  amount of β-catenin protein relative to the original level: less than 20%
[9]; β-catenin-targeting sgRNA, qRT-PCR
  transcript level of β-catenin: significant decrease
[10]
  nuclear localization in the absence of 4-hydroxytamoxifen, versus variant 27 or variant 29: significantly less nuclear localization
[11]; 24 hour treatment with 4-hydroxytamoxifen
  cells containing nuclear-localized protein: 48%
[11]; 72 hours after removal of 4-hydroxytamoxifen
  cells containing nuclear-localized protein: not significantly different from that of the pre-induction state
[11]; without 4-hydroxytamoxifen
  cells containing nuclear-localized protein: 15%
[12]; Surveyor assay, EMX1 and WAS loci
  switching ratio compared with intein-Cas9: significantly higher ratios than intein-Cas9
[12]; deep sequencing
  induction time needed to reach the INDEL frequency of split-Cas9 after approximately 96 hours: 12 h
[12]; no inducer
  background activity without the inducer: comparable levels of leakiness
[13]; 12 hours of chemical treatment
  editing of two genomic loci simultaneously: generated INDELs at both the EMX1 and ADAR1 genomic loci
[13]; 24 hours of chemical treatment
  editing of two genomic loci simultaneously: produced more genome modification than at 12 hours
[14]
  cleavage bands with or without 4HT in the stable line: Cleavage bands (indicated by arrows) were observed for the treated cells, but not for the untreated cells
[15]; 1 μM 4-hydroxytamoxifen after first and second transfection
  cleavage after two cycles of transfection, treated twice with the inducer: cleavage activity was readily observed at both targeted loci
[15]; 4-hydroxytamoxifen after the first but not the second transfection
  cleavage after two cycles of transfection, inducer after the first transfection only: cleavage was detected only at the WAS locus

## variant 27: NLS-TGGGS-ERT2-PRGGS-ERT2-TPESGA-Cas9-NLS-ERT2-PAG-ERT2 (SEQ ID NO. 246)
[1]; Surveyor assay
  duration of 4-hydroxytamoxifen treatment at which cleavage activity appears to plateau: around 8 hours
[2]
  duration of 4-hydroxytamoxifen treatment after which a low level of DNA editing was revealed: 2 h
  time at which leaky activity was first detected: 6 h
[3]; 0 nM 4HT for another 24 hours
  INDEL frequency: 7.7%
[3]
  cleavage bands with 4HT: strong cleavage bands were observed
[3]; [16]
  INDEL frequency: 2.5%

## 4-hydroxytamoxifen [4HT, reference compound]
[1]; 10, 100, 1000 nM tested, Surveyor assay and deep sequencing
  4HT concentration for maximum activation of the inducible genome editing system: at least 100 nM

## variant 29: NLS-TG-ERT2-GGSPRGGS-ERT2-TPESGA-Cas9-NLS-ERT2-PAG-ERT2 (SEQ ID NO. 248)
[1]; Surveyor assay
  duration of 4-hydroxytamoxifen treatment at which cleavage activity appears to plateau: around 8 hours
[2]
  duration of 4-hydroxytamoxifen treatment after which a low level of DNA editing was revealed: 2 h
  time at which leaky activity was first detected: 2 h
[3]; 0 nM 4HT for another 24 hours
  INDEL frequency: 3.5%
[3]
  cleavage bands with 4HT: strong cleavage bands were observed
[3]; [16]
  INDEL frequency: 2.9%
